In patent US9149038B2, “4-amino-6-(heterocyclic)picolinates and 6-amino-2-(heterocyclic)pyrimidine-4-carboxylates and their use as herbicides” (Dow AgroSciences LLC, priority 2013, dated 2015):
Read-outs that look alike come from different tables or passages of the source.

How the values were obtained:
[1] = tested on: Key Broadleaf Weed and Crop Species; experiment: Post-Emergent Test II: postemergent herbicidal activity, visual rating after 14 d (Table 7); type: in vivo; settings: post-emergence, 336 h; for pest or weed control at 35 g/ha: 35 g ai/ha; for pest or weed control at 70 g/ha: 70 g ai/ha; for pest or weed control at 140 g/ha: 140 g ai/ha
Procedure, shortened: (§1)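 Post-emergence foliar spray, 187 L/ha, first/second true leaf stage plants in potting mix (pH 6.0-6.8). Rates: top rate and 2-fold serial dilutions to 1/16×. Solvent-blank controls. Readout: visual % kill at 14 d.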

[2] = tested on: Key Grass and Sedge Weeds as well as Grass Crops; experiment: Post-Emergent Test II: postemergent herbicidal activity, visual rating after 14 d (Table 8); type: in vivo; settings: post-emergence, 336 h; for pest or weed control at 35 g/ha: 35 g ai/ha; for pest or weed control at 70 g/ha: 70 g ai/ha; for pest or weed control at 140 g/ha: 140 g ai/ha
Procedure, shortened: as §1

[3] = lambsquarters (Chenopodium album), read-out: Visual Growth Reduction (%) 14 Days After Application CHEAL
[4] = oilseed rape, canola (Brassica napus), read-out: Visual Growth Reduction (%) 14 Days After Application BRSNN
[5] = redroot pigweed (Amaranthus retroflexus), read-out: Visual Growth Reduction (%) 14 Days After Application AMARE
[6] = sunflower (Helianthus annuus), read-out: Visual Growth Reduction (%) 14 Days After Application HELAN
[7] = velvetleaf (Abutilon theophrasti), read-out: Visual Growth Reduction (%) 14 Days After Application ABUTH
[8] = wild poinsettia (Euphorbia heterophylla), read-out: Visual Growth Reduction (%) 14 Days After Application EPHHL
[9] = barnyardgrass (Echinochloa crus-galli), read-out: Visual Growth Reduction (%) 14 Days After Application ECHCG
[10] = giant foxtail (Setaria faberi), read-out: Visual Growth Reduction (%) 14 Days After Application SETFA
[11] = maize, corn (Zea mays), read-out: Visual Growth Reduction (%) 14 Days After Application ZEAMX
[12] = rice (Oryza sativa), read-out: Visual Growth Reduction (%) 14 Days After Application ORYSA
[13] = wheat, spring (Triticum aestivum), read-out: Visual Growth Reduction (%) 14 Days After Application TRZAS
[14] = yellow nutsedge (Cyperus esculentus), read-out: Visual Growth Reduction (%) 14 Days After Application CYPES

COC(=O)c1nc(-c2ccc3c(c2C)OC(F)(F)O3)cc(N)c1Cl [Compound 35]
pest or weed control at 35 g/ha [1, 3]: 0 to 29% | pest or weed control at 70 g/ha [1, 3]: 60 to 74% | pest or weed control at 140 g/ha [1, 3]: 85 to 94% | pest or weed control at 35 g/ha [1, 4]: 30 to 44% | pest or weed control at 70 g/ha [1, 4]: 45 to 59% | pest or weed control at 140 g/ha [1, 4]: 60 to 74% | pest or weed control at 35 g/ha [1, 5]: 85 to 94% | pest or weed control at 70 g/ha [1, 5]: 95 to 100% | pest or weed control at 140 g/ha [1, 5]: 95 to 100% | pest or weed control at 35 g/ha [1, 6]: 60 to 74% | pest or weed control at 70 g/ha [1, 6]: 85 to 94% | pest or weed control at 140 g/ha [1, 6]: 95 to 100% | pest or weed control at 35 g/ha [1, 7]: 0 to 29% | pest or weed control at 70 g/ha [1, 7]: 75 to 84% | pest or weed control at 140 g/ha [1, 7]: 75 to 84% | pest or weed control at 35 g/ha [1, 8]: 0 to 29% | pest or weed control at 70 g/ha [1, 8]: 0 to 29% | pest or weed control at 140 g/ha [1, 8]: 0 to 29% | pest or weed control at 35 g/ha [2, 9]: 0 to 29% | pest or weed control at 70 g/ha [2, 9]: 0 to 29% | pest or weed control at 140 g/ha [2, 9]: 0 to 29% | pest or weed control at 35 g/ha [2, 10]: 0 to 29% | pest or weed control at 70 g/ha [2, 10]: 0 to 29% | pest or weed control at 140 g/ha [2, 10]: 0 to 29% | pest or weed control at 35 g/ha [2, 11]: 0 to 29% | pest or weed control at 70 g/ha [2, 11]: 0 to 29% | pest or weed control at 140 g/ha [2, 11]: 30 to 44% | pest or weed control at 35 g/ha [2, 12]: 0 to 29% | pest or weed control at 70 g/ha [2, 12]: 0 to 29% | pest or weed control at 140 g/ha [2, 12]: 0 to 29% | pest or weed control at 35 g/ha [2, 13]: 0 to 29% | pest or weed control at 70 g/ha [2, 13]: 0 to 29% | pest or weed control at 140 g/ha [2, 13]: 0 to 29% | pest or weed control at 35 g/ha [2, 14]: 0 to 29% | pest or weed control at 70 g/ha [2, 14]: 30 to 44% | pest or weed control at 140 g/ha [2, 14]: 95 to 100%

COc1c(C(=O)O)nc(-c2cc3c(cc2F)OC(F)(F)O3)c(F)c1N [Compound 23]
pest or weed control at 35 g/ha [1, 3]: 0 to 29% | pest or weed control at 70 g/ha [1, 3]: 0 to 29% | pest or weed control at 140 g/ha [1, 3]: 0 to 29% | pest or weed control at 35 g/ha [1, 4]: 0 to 29% | pest or weed control at 70 g/ha [1, 4]: 75 to 84% | pest or weed control at 140 g/ha [1, 4]: 85 to 94% | pest or weed control at 35 g/ha [1, 5]: 0 to 29% | pest or weed control at 70 g/ha [1, 5]: 0 to 29% | pest or weed control at 140 g/ha [1, 5]: 0 to 29% | pest or weed control at 35 g/ha [1, 6]: 75 to 84% | pest or weed control at 70 g/ha [1, 6]: 85 to 94% | pest or weed control at 140 g/ha [1, 6]: 85 to 94% | pest or weed control at 35 g/ha [1, 7]: 0 to 29% | pest or weed control at 70 g/ha [1, 7]: 0 to 29% | pest or weed control at 140 g/ha [1, 7]: 0 to 29% | pest or weed control at 35 g/ha [1, 8]: 95 to 100% | pest or weed control at 70 g/ha [1, 8]: 95 to 100% | pest or weed control at 140 g/ha [1, 8]: 95 to 100% | pest or weed control at 35 g/ha [2, 9]: 75 to 84% | pest or weed control at 70 g/ha [2, 9]: 95 to 100% | pest or weed control at 140 g/ha [2, 9]: 95 to 100% | pest or weed control at 35 g/ha [2, 10]: 60 to 74% | pest or weed control at 70 g/ha [2, 10]: 75 to 84% | pest or weed control at 140 g/ha [2, 10]: 75 to 84% | pest or weed control at 35 g/ha [2, 11]: 60 to 74% | pest or weed control at 70 g/ha [2, 11]: 60 to 74% | pest or weed control at 140 g/ha [2, 11]: 60 to 74% | pest or weed control at 35 g/ha [2, 12]: 0 to 29% | pest or weed control at 70 g/ha [2, 12]: 0 to 29% | pest or weed control at 140 g/ha [2, 12]: 0 to 29% | pest or weed control at 35 g/ha [2, 13]: 45 to 59% | pest or weed control at 70 g/ha [2, 13]: 45 to 59% | pest or weed control at 140 g/ha [2, 13]: 60 to 74% | pest or weed control at 35 g/ha [2, 14]: 0 to 29% | pest or weed control at 70 g/ha [2, 14]: 45 to 59% | pest or weed control at 140 g/ha [2, 14]: 45 to 59%
